Test: xn = mol fraction of the nth substance listed
Settings: Fluid (supercritical or subcritical phases), x1 = 0.97; for speed of sound: Frequency=5 MHz, Pulse-echo method; for mass density: 283.15 K, Vibrating tube method

O=C=O [carbon dioxide] + CO
speed of sound [m/s]
Settings	273.15 K	283.14 K
14010 kPa	–	615.2
20000 kPa	–	679.8
25010 kPa	–	725
29940 kPa	–	763.8
34980 kPa	–	799.7
39940 kPa	–	831.8
39990 kPa	875.6	–
44950 kPa	903.5	–
45090 kPa	–	862.8
49960 kPa	929.9	–
50150 kPa	–	890.9
54970 kPa	954.7	–
55020 kPa	–	916.3
59830 kPa	–	940.2
60000 kPa	978.4	–
64950 kPa	1000.7	964.2
69990 kPa	1022.2	–
70150 kPa	–	987.4
74930 kPa	1042.5	–
74970 kPa	–	1007.9
79680 kPa	–	1027.1
80120 kPa	1062.9	–
90140 kPa	1100	–
90230 kPa	–	1067.9
99950 kPa	–	1102.7
99970 kPa	1134.2	–
109900 kPa	–	1136.3
110030 kPa	1167	–
120080 kPa	–	1168.8
120150 kPa	1198.3	–
139940 kPa	1255	–
140090 kPa	–	1227.7
159790 kPa	1307.2	–
159980 kPa	–	1281
180050 kPa	–	1330.2
180530 kPa	1357.4	–

Settings	mass density [kg/m3]
5300 kPa	882.11
5325 kPa	882.5
5350 kPa	882.83
5375 kPa	883.08
5400 kPa	883.4
5425 kPa	883.67
5450 kPa	883.98
5475 kPa	884.26
5500 kPa	884.47
5525 kPa	884.8
5550 kPa	885.04
5575 kPa	885.37
5600 kPa	885.62
5625 kPa	885.95
5650 kPa	886.26
5675 kPa	886.49
5700 kPa	886.8
5725 kPa	887.09
5750 kPa	887.39
5775 kPa	887.67
5800 kPa	888.01
5825 kPa	888.24
5850 kPa	888.54
5875 kPa	888.77
5900 kPa	889.08
5925 kPa	889.31
5950 kPa	889.55
5975 kPa	889.92
6000 kPa	890.13
6025 kPa	890.33
6050 kPa	890.62
6075 kPa	890.95
6100 kPa	891.19
6125 kPa	891.52
6150 kPa	891.86
6175 kPa	892.08
6200 kPa	892.35
6225 kPa	892.62
6250 kPa	892.89
6275 kPa	893.14
6300 kPa	893.45
6325 kPa	893.63
6350 kPa	893.89
6375 kPa	894.18
6400 kPa	894.43
6425 kPa	894.67
6450 kPa	894.92
6475 kPa	895.17
6500 kPa	895.37
6525 kPa	895.62
6550 kPa	895.96
6575 kPa	896.11
6600 kPa	896.41
6625 kPa	896.62
6650 kPa	896.9
6675 kPa	897.02
6700 kPa	897.4
6725 kPa	897.56
6750 kPa	897.77
6775 kPa	898.06
6800 kPa	898.37
6825 kPa	898.6
6850 kPa	898.87
6875 kPa	899.09
6900 kPa	899.3
6925 kPa	899.5
6950 kPa	899.65
6975 kPa	899.77
7000 kPa	899.79
7025 kPa	899.99
7050 kPa	900.2
7075 kPa	900.45
7100 kPa	900.68
7125 kPa	900.92
7150 kPa	901.15
7175 kPa	901.36
7200 kPa	901.57
7225 kPa	901.84
7250 kPa	902.09
7275 kPa	902.25
7300 kPa	902.49
7325 kPa	902.74
7350 kPa	902.98
7375 kPa	903.16
7400 kPa	903.45
7425 kPa	903.64
7450 kPa	903.9
7475 kPa	904.05
7500 kPa	904.3
7525 kPa	904.46
7550 kPa	904.69
7575 kPa	904.94
7600 kPa	905.11
7625 kPa	905.36
7650 kPa	905.61
7675 kPa	905.8
7700 kPa	906.04
7725 kPa	906.26
7750 kPa	906.42
7775 kPa	906.67
7800 kPa	906.89
7825 kPa	907.08
7850 kPa	907.32
7875 kPa	907.57
7900 kPa	907.73
7925 kPa	908.06
7950 kPa	908.15
7975 kPa	908.39
8000 kPa	908.68
8025 kPa	908.88
8050 kPa	909.06
8075 kPa	909.27
8100 kPa	909.45
8125 kPa	909.7
8150 kPa	909.86
8175 kPa	910.09
8200 kPa	910.33
8225 kPa	910.56
8250 kPa	910.76
8275 kPa	910.96
8300 kPa	911.17
8325 kPa	911.44
8350 kPa	911.66
8375 kPa	911.83
8400 kPa	912.07
8425 kPa	912.24
8450 kPa	912.4
8475 kPa	912.59
8500 kPa	912.85
8525 kPa	913.06
8550 kPa	913.26
8575 kPa	913.46
8600 kPa	913.66
8625 kPa	913.87
8650 kPa	914.07
8675 kPa	914.29
8700 kPa	914.39
8725 kPa	914.62
8750 kPa	914.82
8775 kPa	915.04
8800 kPa	915.26
8825 kPa	915.43
8850 kPa	915.64
8875 kPa	915.83
8900 kPa	916
8925 kPa	916.16
8950 kPa	916.35
8975 kPa	916.53
9000 kPa	916.73
9025 kPa	916.93
9050 kPa	917.12
9075 kPa	917.31
9100 kPa	917.55
9125 kPa	917.75
9150 kPa	917.9
9175 kPa	918.13
9200 kPa	918.33
9225 kPa	918.6
9250 kPa	918.7
9275 kPa	918.95
9300 kPa	919.11
9325 kPa	919.31
9350 kPa	919.52
9375 kPa	919.69
9400 kPa	919.87
9425 kPa	920.09
9450 kPa	920.32
9475 kPa	920.47
9500 kPa	920.65
9525 kPa	920.85
9550 kPa	921.09
9575 kPa	921.21
9600 kPa	921.39
9625 kPa	921.56
9650 kPa	921.81
9675 kPa	921.97
9700 kPa	922.14
9725 kPa	922.38
9750 kPa	922.58
9775 kPa	922.71
9800 kPa	922.94
9825 kPa	923.15
9850 kPa	923.28
9875 kPa	923.48
9900 kPa	923.69
9925 kPa	923.77
9950 kPa	924
9975 kPa	924.18
10000 kPa	924.34
10025 kPa	924.53
10050 kPa	924.71
10075 kPa	924.83
10100 kPa	925.08
10125 kPa	925.24
10150 kPa	925.41
10175 kPa	925.57
10200 kPa	925.75
10225 kPa	926.06
10250 kPa	926.06
10275 kPa	926.3
10300 kPa	926.47
10325 kPa	926.69
10350 kPa	926.79
10375 kPa	927.06
10400 kPa	927.17
10425 kPa	927.34

From the NIST ThermoML archive (doi:10.1016/j.jct.2016.03.026)
